This note sets out measurements from patent publication US9446015B2, “Quinone based nitric oxide donating compounds for ophthalmic use” (NICOX SCIENCE IRELAND, priority 2012, dated 2016).

Data set [1] deals with endothelial-dependent vasodilation of rat aortas. As to the kind of experiment: Endothelial dysfunction evaluation, vascular response to acetylcholine. As to conditions: 5-day treatment; 5-ISMN 30 mg/kg, Compound (6) 100 mg/kg. It counts as cell-based. The protocol:
Thoracic aortas from male New Zealand rabbits or male Sprague Dawley (SD) were used. The aortas were placed immediately in Krebs-HEPES buffer (pH 7.4; composition mM: NaCl 130.0, KCl 3.7, NaHCO3 14.9, KH2PO4 1.2, MgSO4.7H2O 1.2, Glucose 11.0, HEPES 10.0, CaCl2.2H2O 1.6). Connective tissue was removed and aortas were cut into ring segments (4-5 mm in length). Each ring was placed in a 5 mL tissue bath filled with Krebs-HEPES buffer (37° C.) aerated with 95% O2 and 5% CO2 and was attached to a force transducer (Grass FT03), connected to a BIOPAC MP150 System for measurement of the isometric tension. Preparations were allowed to equilibrate for 1 h at a resting tension of 2 g for rabbit aortas and 1 g for rat aortas with changes of the buffer every 15 min. Then the rings were stimulated by exposure to 90 mM KCl (3 times) with intervening washings.
Rat aorta. After equilibration, rat aortas were precontracted with KCl (90 mM) and, when the contraction was stable, a cumulative concentration-response curve to acetylcholine (ACh, 0.01-100 μM) was added. After washout, the rings were precontracted again with KCl (90 mM). When a steady-state level of contraction was obtained, a cumulative concentration-response curve to the tested compounds (0.01-100 μM) was obtained.
Data analysis. Results are given as mean±SEM. Vascular responses are expressed as percentage relaxation and plotted vs concentration. The sensitivity of isolated aorta to different vasodilators is expressed as the concentration that elicited 50% of the maximal responses (EC50). Responses are quantified in terms of EC50 and Emax (maximal vasodilating effect) values, obtained from the concentration-response curve by nonlinear curve fitting, using GraphPad software.
Endothelial-dependent vasodilation (vascular response to acetylcholine, ACh) was assessed following 5-day treatment with Compound (6) (100 mg/kg) or 5-ISMN (30 mg/kg). A relaxant response to ACh indicated the presence of a functional endothelium. The vascular response was performed as described in Example 6.

Data set [2] has as its system rat L-NAME-induced hypertension. As to the kind of experiment: In vivo tolerance evaluation, L-NAME-induced hypertension after 5-day oral treatment. Conditions: 5-ISMN 30 mg/kg, compound (6) 100 mg/kg. The protocol:
Fasted male SD rats (250-300 g, n=3-5 per group), obtained from Harlan Italy (Correzzana, Milan, Italy) were orally treated with tested compounds or vehicle (DMSO:Methocel 1% 2/98 v/v) in a total volume of 4 ml/kg by gavage. At each time point (1, 3, 6 and 24 h) animals were deeply anesthetized with Zoletil® 100 (3 mg/kg), given intramuscularly. Thereafter, a pressure catheter (Samba Sensors, Harvard Apparatus, UK) was introduced into the common carotid artery for central blood pressure measurement. Pressure transducer was connected to a personal computer, in order to allow real time monitor of the pressure tracing. After 10 minutes of basal recording, L-NAME (50 mg/kg) was administered intraperitoneally and the effect on SBP monitored. When the SBP stabilized (5 minutes without variations) the recording was stopped. To further confirm that functional activity was NO-dependent, at each time point blood ^15N-nitrite levels were measured following the procedure described in Example 12.
To investigate whether the compound (6) induced nitrate tolerance, as observed for most of the drugs belonging to the nitrate class, the L-NAME-induced hypertension rat model described in Example 7 was performed following a repeated oral treatment. Rats were orally treated for 5 days with vehicle, compound (6) (100 mg/kg) or 5-ISMN (30 mg/kg). […] The experiments were performed at the peak effect (1 hour for 5-ISMN and 3 hours for Compound (6)), results are reported in Table 3.

In data set [3] the test system is ocular normotensive New Zealand rabbits. As to the kind of experiment: IOP lowering activity in ocular normotensive New Zealand rabbits. The format is in vivo, New Zealand White rabbits. Here is the method: Intraocular pressure (IOP) lowering activity in ocular normotensive New Zealand rabbits.
• compound (6) • timolol that is a drug commonly used for the treatment of glaucoma and ocular hypertension. • Isosorbide mononitrate (5-ISMN) that is a commonly used nitric oxide donor drug.
Timolol, dorzolamide and 5-ISMN were tested as reference compounds. Adults male New Zealand White rabbits weighting 1.8-2.0 Kg were used in the experiments.
IOP was measured using a pneumatonometer 30 CLASSIC™ before topical application (basal) and a different time point (30, 60, 120, 240 and 300 min) thereafter. Vehicle (5% cremophor-EL; 0.3% DMSO; 0.2 mg/ml BAK in PBS pH 6.0) or tested compounds dissolved in the vehicle were instilled as eye drops into the conjunctiva pocket. Eyes were randomly assigned to different treatment groups. One drop of 0.4% oxybuprocaine hydrochloride (Novesine, Sandoz) was instilled in each eye immediately before each set of pressure measurements.
The test results are reported in Table 7, the ocular hypotensive activity is expressed as IOP changes at 30, 60, 120 and 300 minutes after topical administration versus vehicle and versus IOP at basal.

As to `COC1=C(OC)C(=O)C(CCCCCCCCCCO[N+](=O)[O-])=C(C)C1=O` [Compound (6), 10-(4,5-dimethoxy-2-methyl-3,6-dioxocyclohexa-1,4-dienyl)decyl nitrate], the “effect on endothelial-dependent vasorelaxation (response to ACh)” value in data set [1] is listed as “did not modify endothelial-dependent vasorelaxation”. For the same compound, the “efficacy in preventing L-NAME-induced hypertension after 5-day oral treatment” value in data set [2] is given as “counteracted L-NAME-induced hypertension”. Further, the “ΔΔ (mmHg), IOP change versus vehicle and versus IOP at basal” value is recorded as −1.8 ± 0.4 mmHg in data set [3] (30 min after topical administration), −1.6 ± 0.3 mmHg in data set [3] (60 min after topical administration), −1.3 ± 0.5 mmHg in data set [3] (120 min after topical administration) and −1.5 ± 0.4 mmHg in data set [3] (300 min after topical administration).
